In ChEMBL document CHEMBL1158929, “Tolytoxin and new scytophycins from three species of Scytonema” (J Nat Prod, 1990):
Converted amounts (≈) assume the structure as drawn. The source made the active and inactive calls. The calls are words filed in the database; no cut-off is given here.

Key:
[1] = system: KB; assay: Cytotoxicity against human KB cells; type: functional, cell-based
[2] = system: Aspergillus oryzae; assay: Antifungal activity against Aspergillus oryzae by agar diffusion assay; type: functional, organism-based
[3] = system: Candida albicans; assay: Antifungal activity against Candida albicans by agar diffusion assay; type: functional, organism-based
[4] = system: Penicillium chrysogenum; assay: Antifungal activity against Penicillium notatum by agar diffusion assay; type: functional, organism-based
[5] = system: Saccharomyces cerevisiae; assay: Antifungal activity against Saccharomyces cerevisiae by agar diffusion assay; type: functional, organism-based
[6] = system: LoVo; assay: Cytotoxicity against human LoVo cells; type: functional

With CO[C@H]([C@H](C)/C=C/N(C)C=O)[C@@H](C)C(=O)CC[C@H](C)[C@H](O)[C@H](C)[C@H]1OC(=O)/C=C/C(C)=C/C[C@H](O)C[C@@H]2C=CC[C@@H](C[C@H](OC)[C@](C)(O)[C@@H](OC)C[C@@H](OC)[C@@H]1C)O2 [SCYTOPHYCIN D] as the compound, how does the IC50 [1] read?
The IC50 was 10 ng/mL (≈ 12.2 nM).

For CO[C@H]([C@H](C)/C=C/N(C)C=O)[C@@H](C)C(=O)CC[C@H](C)[C@H](O)[C@H](C)[C@H]1OC(=O)/C=C/C(C)=C/[C@H](O)[C@H](OC)C[C@@H]2C=CC[C@@H](C[C@H](OC)[C@@]3(CO3)[C@@H](OC)C[C@@H](OC)[C@@H]1C)O2 [TOLYTOXIN], which IC50 [1] is on record?
Its IC50 is 1 ng/mL (≈ 1.18 nM).

And the Activity [2]?
The Activity was “Active”.

What about the Activity [3] of the same compound?
Its Activity is “Active”.

What about the Activity [4] of the same compound?
The Activity was “Active”.

What about the Activity [5] of the same compound?
The Activity was “Active”.

CO[C@H]([C@H](C)/C=C/N(C)C=O)[C@@H](C)C(=O)CC[C@H](C)[C@H](O)[C@H](C)[C@H]1OC(=O)/C=C/C(C)=C/C[C@H](O)C[C@@H]2C=CC[C@@H](C[C@H](OC)[C@@H](C)[C@@H](OC)C[C@@H](OC)[C@@H]1C)O2 [SCYTOPHYCIN C] was tested. Which IC50 [1] did it give?
Its IC50 is 10 ng/mL (≈ 12.4 nM).

CO[C@H]([C@H](C)/C=C/N(C)C=O)[C@@H](C)C(O)CC[C@H](C)[C@H](O)[C@H](C)[C@H]1OC(=O)/C=C/C(C)=C/C[C@H](O)C[C@@H]2C=CC[C@@H](C[C@H](OC)[C@@]3(CO3)[C@@H](OC)C[C@@H](OC)[C@@H]1C)O2 (stereo partly specified) [SCYTOPHYCIN A] was tested. Which IC50 [1] did it give?
The IC50 was 1 ng/mL (≈ 1.22 nM).

What does the source list for CO[C@H]([C@H](C)/C=C/N(C)C=O)[C@@H](C)C(=O)CC[C@H](C)[C@H](O)[C@H](C)[C@H]1OC(=O)/C=C/C(C)=C/[C@H](O)[C@H](OC)C[C@@H]2C=CC[C@@H](C[C@H](OC)[C@@H](CO)[C@@H](OC)C[C@@H](OC)[C@@H]1C)O2?
IC50 [1]: 1 ng/mL (≈ 1.17 nM); Activity [2]: Active; Activity [3]: Active; Activity [4]: Active; Activity [5]: Active

Which IC50 [1] does the source give for CO[C@H]([C@H](C)/C=C/N(C)C=O)[C@@H](C)C(=O)CC[C@H](C)[C@H](O)[C@H](C)[C@H]1OC(=O)/C=C/C(C)=C/C[C@H](O)C[C@@H]2C=CC[C@@H](C[C@H](OC)[C@@H](CO)[C@@H](OC)C[C@@H](OC)[C@@H]1C)O2 [SCYTOPHYCIN E] here?
The IC50 was 10 ng/mL (≈ 12.2 nM).

And the MIC [6]?
The MIC was 10 ng/mL (≈ 12.2 nM).

How did the IC50 [1] turn out when CO[C@H]([C@H](C)/C=C/N(C)C=O)[C@@H](C)C(=O)CC[C@H](C)[C@H](O)[C@H](C)[C@H]1OC(=O)/C=C/C(C)=C/C[C@H](O)C[C@@H]2C=CC[C@@H](C[C@H](OC)[C@@H](C)[C@@H](OC)C[C@@H](O)[C@@H]1C)O2 was run?
Its IC50 is 1 ng/mL (≈ 1.26 nM).

And the Activity [2]?
Its Activity is “Active”.

What about the Activity [3] of the same compound?
Its Activity is “Active”.

What about the Activity [4] of the same compound?
Its Activity is “Active”.

And the Activity [5]?
The Activity was “Active”.

CO[C@H]([C@H](C)/C=C/N(C)C=O)[C@@H](C)C(=O)CC[C@H](C)[C@H](O)[C@H](C)[C@H]1OC(=O)/C=C/C(C)=C/[C@H](O)[C@H](O)C[C@@H]2C=CC[C@@H](C[C@H](OC)[C@@]3(CO3)[C@@H](OC)C[C@@H](OC)[C@@H]1C)O2 [6-HYDROXYSCYTOPHYCIN B] was tested. Which IC50 [1] did it give?
Its IC50 is 1 ng/mL (≈ 1.2 nM).

And the Activity [2]?
Its Activity is “Active”.

What about the Activity [3] of the same compound?
The Activity was “Active”.

And the Activity [4]?
Its Activity is “Active”.

And the Activity [5]?
Its Activity is “Active”.

CO[C@H]([C@H](C)/C=C/N(C)C=O)[C@@H](C)C(=O)CC[C@H](C)[C@H](O)[C@H](C)[C@H]1OC(=O)/C=C/C(C)=C/C[C@H](O)C[C@@H]2C=CC[C@@H](C[C@H](OC)[C@@]3(CO3)[C@@H](OC)C[C@@H](OC)[C@@H]1C)O2 [SCYTOPHYCIN B] was tested. Which IC50 [1] did it give?
Its IC50 is 1 ng/mL (≈ 1.22 nM).
